Source: patent US5128420A, “Method of making hydroxamic acid polymers from primary amide polymers” (Massachusetts Institute of Technology, priority 1988, dated 1992)

Tested on: urease forming bacteria, Proteus
Assay: Urease inhibition activity (ammonia production by urease forming bacteria in artificial urine)
Type: cell-based
Procedure: PHA was tested for urease inhibition activity using the procedure of Griffith et al in Investigative Urology 13(5),346-350(1976). Briefly, one square centimeter of agar slab containing a layer of urease forming bacteria, Proteus, was dissolved in 25 ml of artificial urine made of 25 g urea dissolved in one liter water. 30 mg polymer was added per ml urine and the mixture incubated overnight at 37° C. The production of ammonia, indicative of urease activity, was measured using an amino acid analyzer.
*% activity was estimated relative to AHA from the ratio between the
decrease in ammonia number of the polymer and AHA.

## CC(=O)NO [AHA, acetyl hydroxamic acid]
30 mg per ml artificial urine, overnight at 37° C., amino acid analyzer
  Ammonia: 1165-1331
Estimated relative to AHA from the ratio between the decrease in ammonia number of the polymer and AHA
  % Activity: 100%
